Results: publication PMC12884772, “Macrophagic Sclerostin Loop2‐ApoER2 Interaction Required by Sclerostin for Cardiovascular Protective Action” (Advanced Science, 2025)

Legend:
[1] = tested on: sclerostin loop2‐ApoER2 interaction; experiment: BLI blockade of ApoER2 - sclerostin loop2 binding by pretreatment with ApoER2‐Pep; details: His‐ApoER2 on HIS1K biosensors, sclerostin loop2 pretreated with ApoER2‐Pep, Figure 6F, listed as ApoER2‐LA7
Description: Biolayer interferometry (BLI) analysis was performed on the Biomolecular Interaction Analyzer (ForteBio, Octet RED96e). To determine the binding affinity between ApoER2 and sclerostin, the ApoER2 protein (R&D, 3520‐AR) was biotinylated using 10 mM EZ‐Link Sulfo‐NHS‐LC‐LC‐Biotin (Thermo Scientific, 21 343) in a molar ratio of 1:20 for 2 h at 4 °C. The Slide‐A‐Lyzer Dialysis Cassettes (Thermo Scientific, 66 382) were used for excess biotin removal.^[ [61] ^] […] (SA) tray biosensors (Sartorius, 18‐5019) were used to load biotin‐ApoER2 proteins. Biosensors were pre‐wet for 10 min using 200 µL PBS containing 0.02% Tween 20 (v/v) in a 96‐well plate. To determine the binding affinity between sclerostin loop2 and ApoER2‐LA7, anti‐penta‐HIS (HIS1K) biosensors (Sartorius, 18‐5102) were used to load His‐sclerostin loop2, the sclerostin loop2‐loaded biosensors were immersed in the ApoER2‐LA7 with different concentrations. […] Raw data were analyzed using Data Analysis Software (ForteBio, v8.1). All Kd values were calculated after deducting the non‐specific binding between the biosensors and the samples.^[ [62], [63] ^]
Target sequence in this assay (Q99P68 107-132 limits assumed): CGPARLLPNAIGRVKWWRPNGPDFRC

[2] = tested on: sclerostin‐knockout macrophages (RAW264.7); experiment: Effect of ApoER2‐LA7 on LPS‐induced cytokine mRNA in sclerostin‐knockout macrophages (RAW264.7); assay type: cell-based, mouse; details: sclerostin‐knockout RAW264.7, after LPS induction, n = 3; Figure S7C
sost^−/−.ApoE^−/− mice = experiment: Inflammatory responses in sost^−/−.ApoE^−/− mice with AngII infusion (absence of sclerostin); assay type: in vivo, mouse; details: 10 mg/kg, n = 6, Figure S12F
Description: (§1) Aortic aneurysm (AA), atherosclerosis, and inflammatory responses were induced in ApoE^−/− mice with AngII infusion as previously described.^[ [15] ^] In brief, osmotic minipumps (Model 1004, ALZET, Durect Corporation) were implanted into the subcutaneous space along the dorsal midline under anaesthesia on the right flank via an incision in the scapular region to deliver 1000 ng/kg/min of AngII (A9525, Sigma‐Aldrich) or vehicle in 3‐month‐old mice for four weeks.^[ [68] ^]
(§2) The serum levels of sclerostin were detected using the sclerostin ELISA kits (R&D, DSST00; Cloud‐Clone, SEC864Mu) in triplicate following the manufacturer's instructions.^[ [14] ^] The serum levels of pro‐inflammatory cytokine and chemokine were measured using TNF‐α ELISA kit (Thermo Fisher BMS607‐3) and MCP‐1 ELISA kit (Thermo Fisher, BMS6005) in triplicate following manufacturer's instructions.^[ [15], [45] ^] The serum levels of anti‐inflammatory cytokine were measured using IL‐10 ELISA kit (Jonlnbio JL20242‐96T) in triplicate following manufacturer's instructions.^[ [15], [45] ^]
Figure S12. […] (A) Serum stability of the modified ApoER2-Pep. […] All tests were two-sided. n = 6 per group. Data were expressed as mean ± standard deviation.

SOST^ki.ApoE^−/− mice = experiment: Aortic aneurysm, atherosclerosis and inflammatory responses in SOST^ki.ApoE^−/− mice with AngII infusion; assay type: in vivo, mouse; details: 10 mg/kg/day subcutaneous, four weeks, versus veh and Rseq‐Pep groups, n = 12
Description: as §1
For AA evaluation, the aortas were perfused via the left ventricle with ice‐cold EDTA buffer (1 mM) and saline immediately after sacrifice. The aortas were then isolated from the fat and connective tissues under a Zeiss Stemi 305 stereomicroscope and then fixed in 4% PFA. The aorta with or without aneurysm formation was defined according to Daugherty's modified classification.^[ [45] ^] The incidence of AA was determined as follows: mouse number with aortic aneurysm/group mice*100%. The maximum ex vivo diameters of the aortic arch and suprarenal aorta were determined by ImageJ software. For atherosclerosis assessment, atherosclerotic plaque was quantified by measuring the surface area of the Oil Red O‐positive lesions on en face preparation of aortic arches.^[ [14] ^] Briefly, aortic arches were cut longitudinally and immersed in Oil Red O dye solution, followed by being rinsed with 75% ethanol. The ratio of atherosclerotic plaque area to total aortic arch area was quantified by colorimetric analysis using Image J software.^[ [13] ^]
as §2

[3] = tested on: sclerostin loop2‐ApoER2 interaction; experiment: ApoER2‐Pep blockade of sclerostin effects in ApoER2 overexpressing, LPS‐induced RAW 264.7 macrophages; assay type: cell-based, mouse
Description: In ApoER2‐Pep‐mediated structure‐function studies in vitro, RAW 264.7 cells were divided into 4 groups (n = 3 per group), including (1) Control, (2) LPS, (3) Lrp8 + LPS + SOST, and (4) Lrp8 + LPS + SOST + ApoER2‐Pep. Cells in groups (3) and (4) were transfected with Lrp8 plasmids encoding ApoER2, while cells in groups (1) and (2) were kept untreated. 24 h later, cells in group (3) were treated with recombinant sclerostin (SOST, 1 µM), while cells in group (4) were treated with recombinant sclerostin (1 µM) and ApoER2‐Pep (2 µM) for 3 h. Then, cells in groups (2), (3), and (4) were treated with LPS (1 µg/mL) for 18 h. All groups of cells were collected for determining the mRNA expression levels of TNF‐α, MCP‐1, and IL‐10 by RT‐PCR. Cell mediums were collected for determining the protein expression/secretion levels of mouse TNF‐α, mouse MCP‐1, and mouse IL‐10 by ELISA.
Total RNA was extracted from cells following the protocols of Trizol reagent (Invitrogen, 15 596 026). Reverse‐transcription was performed to obtain cDNA using HiScript III RT SuperMix kit (Vazyme, R323), and RT‐PCR was accomplished using a HiScript III RT SuperMix kit (Vazyme, R323) in a QuantStudio 7 PRO System (Applied Biosystems). The relative gene expression levels were calculated using the 2^−ΔΔCt method with GAPDH as the reference gene.^[ [40] ^] The primers were as follows: mouse GAPDH (F: […], R: GGGGTCGTTGATGGCAAC), mouse NF‐κB (p65, F: […], R: […]), mouse TNF‐α (F: […], R: […]), mouse MCP‐1 (F: […], R: […]), mouse IL‐10 (F: […], R: […]), human GAPDH (F: […], R: […]), human TNF‐α (F: […], R: […]), human MCP‐1 (F: […], R: […]) and human IL‐10 (F: […], R: […]).

[4] = LPS‐induced macrophages in vitro

Binding of ApoER2 to sclerostin loop2 after pretreatment with the peptide [1]: blocked
Sequence: PCRENEFQCGDGTCVLAIKRCNQERDCPDGSDEAGCL [ApoER2‐Pep]
mRNA expression levels of TNF‐α, MCP‐1 and IL‐10, with versus without the peptide [2]: no significant differences
Effect on inflammatory responses (serum TNF‐α, MCP‐1, IL‐10) in the absence of sclerostin (sost^−/−.ApoE^−/− mice): no effect
Serum level of IL‐10 (SOST^ki.ApoE^−/− mice; ELISA): significantly lower
Serum level of MCP‐1 (SOST^ki.ApoE^−/− mice; ELISA): significantly higher
Serum level of TNF‐α (SOST^ki.ApoE^−/− mice; ELISA): significantly higher
AA incidence (SOST^ki.ApoE^−/− mice): significantly higher
Maximum ex vivo diameters of aortic arches and suprarenal aortas (SOST^ki.ApoE^−/− mice): significantly higher
Ratio of atherosclerotic plaque in aortic arches (SOST^ki.ApoE^−/− mice): significantly higher
Effects of exogenous sclerostin on protein expression/secretion of TNF‐α, MCP‐1 and IL‐10 after pretreatment with the peptide ([3]; ApoER2‐Pep 2 µM + sclerostin 1 µM for 3 h, LPS 1 µg/mL 18 h, ELISA, n = 3): significantly attenuated
Effects of exogenous sclerostin on mRNA expression of TNF‐α, MCP‐1 and IL‐10 after pretreatment with the peptide ([3]; ApoER2‐Pep 2 µM + sclerostin 1 µM for 3 h, LPS 1 µg/mL 18 h, RT‐PCR, n = 3): significantly attenuated
Reversal of the promotive effect of sclerostin on IL‐10 mRNA expression [3, 4]: complete reversal
Reversal of the suppressive effect of sclerostin on MCP‐1 mRNA expression [3, 4]: complete reversal
Reversal of the suppressive effect of sclerostin on TNF‐α mRNA expression [3, 4]: partial reversal
